Test results published in US20160083391A1, “TRICYCLIC PIPERAZINE DERIVATIVE” (Sunovion Pharmaceuticals Inc., priority 2014, published 2016).

Tested on: PDE1
Assay: In vitro HTRF PDE1 inhibition assay
Format: biochemical
Details: HTRF cGMP assay, 100 nM cyclic GMP, PDE (1A3, 1B or 1C) with calmodulin, 45 minutes at 37° C.; isoform of the tabulated values not stated
Summary of the method: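 HTRF cGMP competition assay: PDE1A3, 1B or 1C with calmodulin acting on 100 nM cGMP in 1% DMSO, pH 7.4 buffer with Ca2+ and Mg2+, 45 min at 37 °C. Remaining cGMP detected with d2-cGMP and anti-cGMP cryptate (665/615 nm); IC50 reported as banded categories.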

| Structure (SMILES) | IC50 [µM] |
| --- | --- |
| O=c1c2cnn(C3CC3)c2nc2n1CCN(c1ccc(Cl)cc1)C2 [Compound I-248, 8-(4-Chlorophenyl)-1-cyclopropyl-6,7,8,9-tetrahydropyrazino[1,2-a]pyrazolo[3,4-d]pyrimidin-4(1H)-one] | < 1 |
| O=c1c2cnc(C3CCC3)n2nc2n1CCN(c1ccc(Cl)cc1)C2 [Compound I-249, 7-(4-Chlorophenyl)-3-cyclobutyl-8,9-dihydro-6H-imidazo[5,1-f]pyrazino[2,1-c][1,2,4]triazin-11(7H)-one] | < 1 |
| CC(C)(C)c1ncc2c(=O)n3c(nn12)CN(c1ccc(Cl)cc1)CC3 [Compound I-250, 3-(tert-Butyl)-7-(4-chlorophenyl)-8,9-dihydro-6H-imidazo[5,1-f]pyrazino[2,1-c][1,2,4]triazin-11(7H)-one] | 1 to 10 |
| O=c1c2cnc(C3CC3)n2nc2n1CCN(c1ccc(Cl)cc1)C2 [Compound I-251, 7-(4-Chlorophenyl)-3-cyclopropyl-8,9-dihydro-6H-imidazo[5,1-f]pyrazino[2,1-c][1,2,4]triazin-11(7H)-one] | < 1 |
| O=c1c2cnc(C3CCNCC3)n2nc2n1CCN(c1ccc(Cl)cc1)C2 [Compound I-252, 7-(4-Chlorophenyl)-3-(piperidin-4-yl)-8,9-dihydro-6H-imidazo[5,1-f]pyrazino[2,1-c][1,2,4]triazin-11(7H)-one] | 1 to 10 |

Next, values leading:

| IC50 [µM] | Structure (SMILES) |
| --- | --- |
| 1 to 10 | CCCn1ncc2c(=O)n3c(nc21)CN(Cc1ccc(Cl)cc1)CC3 [Compound I-253, 8-(4-Chlorobenzyl)-1-propyl-6,7,8,9-tetrahydropyrazino[1,2-a]pyrazolo[3,4-d]pyrimidin-4(1H)-one] |
| 1 to 10 | CCCn1ncc2c(=O)n3c(nc21)CN(Cc1cccc(OC)c1)CC3 [Compound I-254, 8-(3-Methoxybenzyl)-1-propyl-6,7,8,9-tetrahydropyrazino[1,2-a]pyrazolo[3,4-d]pyrimidin-4(1H)-one] |
| 1 to 10 | CCCn1ncc2c(=O)n3c(nc21)CN(Cc1ccc2c(c1)OCO2)CC3 [Compound I-255, 8-(Benzo[d][1,3]dioxol-5-ylmethyl)-1-propyl-6,7,8,9-tetrahydropyrazino[1,2-a]pyrazolo[3,4-d]pyrimidin-4(1H)-one] |
| 1 to 10 | COCCn1ncc2c(=O)n3c(nc21)CN(c1ccc(Cl)cc1)CC3 [Compound I-256, 8-(4-Chlorophenyl)-1-(2-methoxyethyl)-6,7,8,9-tetrahydropyrazino[1,2-a]pyrazolo[3,4-d]pyrimidin-4(1H)-one] |
| 1 to 10 | COCCn1ncc2c(=O)n3c(nc21)CN(c1ccc(Cl)c(Cl)c1)CC3 [Compound I-257, 8-(3,4-Dichlorophenyl)-1-(2-methoxyethyl)-6,7,8,9-tetrahydropyrazino[1,2-a]pyrazolo[3,4-d]pyrimidin-4(1H)-one] |
| < 1 | O=c1n2c(nc3c(C4CCCC4)ncn13)CN(Cc1ccc(Cl)cc1)CC2 [Compound I-258, 6-(4-Chlorobenzyl)-3-cyclopentyl-7,8-dihydro-5H-imidazo[1,5-a]pyrazino[2,1-d][1,3,5]triazin-10(6H)-one] |
